The results in this text go back to ChEMBL document CHEMBL5257068, “Synthesis and biological evaluation of DIDS analogues as efficient inhibitors of RAD51 involved in homologous recombination” (Bioorg Med Chem Lett, 2023).

Usually pIC50 stands for −log10 of the IC50, conventionally taken in molar units.

pIC50: −log10 of the molar value.

Test [1] concerns the target T1, DNA repair protein RAD51 homolog 1 (Homo sapiens, UniProt Q06609).
T1 sequence (Q06609 whole entry): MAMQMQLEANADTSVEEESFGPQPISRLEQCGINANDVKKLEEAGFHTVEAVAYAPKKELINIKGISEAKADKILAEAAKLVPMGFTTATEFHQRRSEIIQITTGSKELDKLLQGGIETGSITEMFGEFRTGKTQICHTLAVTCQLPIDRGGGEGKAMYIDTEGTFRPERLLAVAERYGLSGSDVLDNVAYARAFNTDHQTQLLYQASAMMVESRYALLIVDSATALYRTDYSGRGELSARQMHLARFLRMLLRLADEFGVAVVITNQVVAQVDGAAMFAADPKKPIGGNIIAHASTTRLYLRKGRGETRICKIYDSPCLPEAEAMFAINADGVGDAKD
As to the kind of experiment: Inhibition of RAD51 (unknown origin) mediated homologous recombination.

The target of test [2] is T1, DNA repair protein RAD51 homolog 1. As to the kind of experiment: Inhibition of RAD51 (unknown origin) assessed as reduction in novel 58/33-dsDNA formation incubated for 1 hr by electrophoresis based DNA strand exchange assay.
For test [3] the target is unchanged. The experiment in a line: Inhibition of RAD51 (unknown origin) using labeled 100-ss DNA as substrate assessed as reduction in DNA D-loop formation by [gamma-32P]ATP based scintillation counter method.
Test [4] deals with DU-145. As to the kind of experiment: Cytotoxicity against human DU-145 cells overexpressing RAD51 assessed as cell viability at 1 uM incubated for 72 hrs by MTT assay relative to control. To be noted: read-out: Activity. The test is classed as functional. On the technique in general: Tetrazolium assays rely on reduction of a dye to a coloured formazan, in cell work by metabolically active cells.

Test [5] has as its system DU-145. As to the kind of experiment: Cytotoxicity against human DU-145 cells overexpressing RAD51 assessed as cell viability at 10 uM incubated for 72 hrs by MTT assay relative to control. The test is classed as functional. To be noted: read-out: Activity.
In test [6] the test system is DU-145. As to the kind of experiment: Cytotoxicity against human DU-145 cells overexpressing RAD51 assessed as cell viability at 50 uM incubated for 72 hrs by MTT assay relative to control. The test is classed as functional. To be noted: read-out: Activity.
Test [7] concerns the target T1, DNA repair protein RAD51 homolog 1. As to the kind of experiment: Inhibition of wild type human RAD51 expressed in Escherichia coli BL21-DE3 using 100 bp ssDNA probe as substrate assessed as prevention of D-loop formation preincubated for 5 mins followed by plasmid DNA addition and measured after 15 mins by agarose gel electrophoresis method.

For `O=C1C(Cl)=C(N2CCOCC2)C(=O)N1c1ccc(Cl)c(Cl)c1`, the pIC50 in test [1] was 4.70.
Turning to `O=S(=O)(O)c1cc(N=C=S)ccc1/C=C/c1ccc(N=C=S)cc1S(=O)(=O)O`, the results for the pIC50 in test [2], in test [3] and in test [7] were 6.12, 6.05 and 6.05, respectively. The viability at 1 µM in the test with DU-145 [4] is 90%. Moreover, the viability at 10 µM in the test with DU-145 [5] turned out to be 87%. In the test with DU-145 [6], the viability at 50 µM is 83%.
As for `O=c1c2ccccc2nc(/C=C/c2cccnc2)n1Cc1ccccc1`, in the test with DU-145 [4], the viability at 1 µM was 95%. For the same compound, the viability at 10 µM with DU-145 [5] was 79%. Besides, in the test on DU-145 [6], the viability at 50 µM is 9%.
Turning to `O=S(=O)(O)c1cc(I)ccc1/C=C/c1ccc(I)cc1S(=O)(=O)O`, the pIC50 in test [2] was 4.76. Further, the viability at 1 µM with DU-145 [4] was 91%. Moreover, in the test on DU-145 [5], the viability at 10 µM was 89%. For the same compound, the viability at 50 µM with DU-145 [6] is 84%.
For the compound `N#Cc1ccc(CCc2ccc(C#N)cc2S(=O)(=O)O)c(S(=O)(=O)O)c1`, the pIC50 in test [3] is under 4.30.
For the compound `[N-]=[N+]=Nc1ccc(/C=C/c2ccc(N=[N+]=[N-])cc2S(=O)(=O)O)c(S(=O)(=O)O)c1`, the pIC50 in test [2] is 5.00; in test [3] it was 4.67; in test [7] it was 4.35. For the same compound, the viability at 1 µM in the test on DU-145 [4] was found to be 87%. In the test with DU-145 [5], the viability at 10 µM came to 94%. Further, the viability at 50 µM in the test with DU-145 [6] was 93%.
Consider `N#Cc1ccc(/C=C/c2ccc([N+](=O)[O-])cc2S(=O)(=O)O)c(S(=O)(=O)O)c1`, for which, in test [3], the negative-log IC50 (pIC50) was 4.70. In addition, the viability at 1 µM with DU-145 [4] came out at 90%. For the same compound, the viability at 10 µM in the test on DU-145 [5] stood at 85%. Moreover, the viability at 50 µM in the test on DU-145 [6] stood at 88%.
For the compound `[N-]=[N+]=Nc1ccc(/C=C/c2ccc(N=[N+]=[N-])cc2)cc1`, the pIC50 in test [3] is under 4.30.
Same read-out and setting: then `O=C(Nc1ccc(CCc2ccc(NC(=O)Oc3ccccc3)cc2S(=O)(=O)O)c(S(=O)(=O)O)c1)Oc1ccccc1`, with 4.52.
With `CCOC(=O)Nc1ccc(/C=C/c2ccc(NC(=O)OCC)cc2S(=O)(=O)O)c(S(=O)(=O)O)c1`, the pIC50 in test [2] is under 4.30.
Take `COS(=O)(=O)c1cc(NC(=O)Oc2ccccc2)ccc1/C=C/c1ccc(NC(=O)Oc2ccccc2)cc1S(=O)(=O)OC`: the pIC50 in test [3] is under 4.30.
For `COc1ccc(C(=O)Nc2ccc(/C=C/c3ccc(NC(=O)c4ccc(OC)cc4)cc3S(=O)(=O)O)c(S(=O)(=O)O)c2)cc1`, the pIC50 in test [2] is 5.52; in test [3] it was 5.19. The viability at 50 µM in the test with DU-145 [6] was determined as 100%.
On to `O=S(=O)(Nc1ccc(/C=C/c2ccc(NS(=O)(=O)c3ccccc3)cc2)cc1)c1ccccc1`, for which the pIC50 in test [3] is under 4.30.
Regarding `Cc1ccc(S(=O)(=O)Nc2ccc(/C=C/c3ccc(NS(=O)(=O)c4ccc(C)cc4)cc3S(=O)(=O)O)c(S(=O)(=O)O)c2)cc1`, the viability at 1 µM with DU-145 [4] was 100%. The viability at 10 µM with DU-145 [5] was 100%. The viability at 50 µM with DU-145 [6] worked out at 100%.
As for `CC(C)COC(=O)Nc1ccc(/C=C/c2ccc(NC(=O)OCC(C)C)cc2S(=O)(=O)O)c(S(=O)(=O)O)c1`, the pIC50 in test [3] was under 4.30.
For `N#Cc1ccc(/C=C/c2ccc(C#N)cc2S(=O)(=O)O)c(S(=O)(=O)O)c1`, the pIC50 in test [2] was 5.89; in test [3] it was 5.31. Also, the viability at 1 µM in the test with DU-145 [4] amounted to 99%. For the same compound, in the test on DU-145 [5], the viability at 10 µM came to 94%. Moreover, in the test on DU-145 [6], the viability at 50 µM came out at 100%.
For `CC(=O)Nc1ccc(/C=C/c2ccc(NC(C)=O)cc2S(=O)(=O)O)c(S(=O)(=O)O)c1`, the pIC50 in test [2] was under 4.30.
For `O=[N+]([O-])c1ccc(S(=O)(=O)Nc2ccc(/C=C/c3ccc(NS(=O)(=O)c4ccc([N+](=O)[O-])cc4)cc3S(=O)(=O)O)c(S(=O)(=O)O)c2)cc1`, the pIC50 in test [3] was under 4.30.
In the case of `O=C(Nc1ccc(/C=C/c2ccc(NC(=O)c3ccccc3)cc2S(=O)(=O)O)c(S(=O)(=O)O)c1)c1ccccc1`, in test [2], the pIC50 was under 4.30. For the same compound, the viability at 1 µM with DU-145 [4] worked out at 100%. Further, the viability at 10 µM with DU-145 [5] is 100%. Moreover, the viability at 50 µM in the test on DU-145 [6] was found to be 100%.
On to `CCC(=O)Nc1ccc(/C=C/c2ccc(NC(=O)CC)cc2S(=O)(=O)O)c(S(=O)(=O)O)c1`, for which, in test [2], the pIC50 was under 4.30.
Regarding `O=C(Nc1ccc(/C=C/c2ccc(NC(=O)Oc3ccccc3)cc2)cc1)Oc1ccccc1`, in test [3], the pIC50 was 4.52.
`O=C(Nc1ccc(/C=C/c2ccc(NC(=O)Oc3ccccc3)cc2S(=O)(=O)O)c(S(=O)(=O)O)c1)Oc1ccccc1`: the pIC50 in test [2] is 5.42; in test [3], 5.64. Further, the viability at 1 µM in the test with DU-145 [4] is 100%. Also, the viability at 10 µM in the test with DU-145 [5] stood at 100%. Further, in the test on DU-145 [6], the viability at 50 µM was 87%.
Take `O=[N+]([O-])c1ccc(/C=C/c2ccc([N+](=O)[O-])cc2S(=O)(=O)O)c(S(=O)(=O)O)c1`: in test [3], the pIC50 is under 4.30.
As to `CC(=O)Nc1ccc(/C=C/c2ccc(N=C=S)cc2S(=O)(=O)O)c(S(=O)(=O)O)c1`, the pIC50 in test [3] and in test [7] was 4.54 throughout.
